ChEMBL document CHEMBL3886543, “Quinoline derivatives useful as CB-1 inverse agonists” (2016)

Legend:
Cannabinoid receptor 1 [1] = target: T1, Cannabinoid receptor 1 (Homo sapiens, UniProt P21554); assay: Membranes were purchased from Perkin Elmer.
Cannabinoid receptor 2 [2] = target: T2, Cannabinoid receptor 2 (Homo sapiens, UniProt P34972); assay: Membranes were prepared as described in FELDER, C. C., et al., Molecular Pharmacology, 1992, pp 838-845, Vol. 42.
Cannabinoid receptor 2 [3] = target: T2, Cannabinoid receptor 2; assay: (§1) cAMP Assay: The following mixtures and buffer solutions were prepared: (a) Buffer 1: HBSS (Mediatech Cat#21-023-CV) with 5 mM HEPES (1 mM stock, Gibco BRL Cat#15630-056) and 0.1% BSA (7.5% stock, Invitrogen Cat#15260-037); (b) Buffer 2: 0.5 mM IBMX (200 mM stock in DMSO, Sigma 15879) in Buffer 1; (c) 1 uM cAMP Standard (50 uM stock, Perkin Elmer Cat# AD0262) diluted in Buffer 2 and serially diluted in Buffer 2, 12 doses at 1/2 dilutions resulting in a dose range of 1 uM to 0.5 nM; (d) d2 labelled cAMP (CisBio HTRF Detection Kit Cat #62AM4PEB reconstituted with 6 ml dH2O) diluted 1/20 with lysis buffer (CisBio HTRF Detection Kit Cat #62AM4PEB); (e) anti-cAMP (CisBio HTRF Detection Kit Cat #62AM4PEB reconstituted with 5 ml dH2O) diluted 1/20 with lysis buffer (CisBio HTRF Detection Kit Cat #62AM4PEB); and (f) Forskolin (Sigma Cat# F6886, 10 mM in DMSO) diluted first in DMSO to 1 mM and then to 1.5 uM in Buffer 2.; assay type: functional
Cannabinoid receptor 1 [4] = target: T1, Cannabinoid receptor 1; assay: as §1; assay type: functional

T1 sequence (P21554 whole entry): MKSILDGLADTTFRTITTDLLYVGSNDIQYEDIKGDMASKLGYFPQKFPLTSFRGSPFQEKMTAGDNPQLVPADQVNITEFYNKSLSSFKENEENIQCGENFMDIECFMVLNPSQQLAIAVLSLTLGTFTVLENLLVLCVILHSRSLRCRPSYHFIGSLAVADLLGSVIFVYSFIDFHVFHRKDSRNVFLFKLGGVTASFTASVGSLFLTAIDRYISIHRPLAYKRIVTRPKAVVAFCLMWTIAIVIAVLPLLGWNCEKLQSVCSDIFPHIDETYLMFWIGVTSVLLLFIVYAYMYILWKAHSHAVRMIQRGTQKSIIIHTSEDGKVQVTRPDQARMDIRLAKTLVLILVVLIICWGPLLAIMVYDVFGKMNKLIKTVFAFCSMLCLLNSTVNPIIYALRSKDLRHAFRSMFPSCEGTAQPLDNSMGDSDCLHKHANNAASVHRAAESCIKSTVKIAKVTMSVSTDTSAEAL
T2 sequence (P34972 whole entry): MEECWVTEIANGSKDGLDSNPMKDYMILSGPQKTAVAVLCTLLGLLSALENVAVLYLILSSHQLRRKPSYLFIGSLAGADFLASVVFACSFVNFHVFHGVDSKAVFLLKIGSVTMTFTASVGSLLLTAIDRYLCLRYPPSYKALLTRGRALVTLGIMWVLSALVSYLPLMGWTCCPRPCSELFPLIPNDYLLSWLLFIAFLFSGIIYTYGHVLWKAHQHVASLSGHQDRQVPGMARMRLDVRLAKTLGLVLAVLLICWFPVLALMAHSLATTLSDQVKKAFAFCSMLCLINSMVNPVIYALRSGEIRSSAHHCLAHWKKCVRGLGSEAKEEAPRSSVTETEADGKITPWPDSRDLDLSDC

Row | SMILES | EC50 (Cannabinoid receptor 1 [1]) | EC50 (Cannabinoid receptor 2 [2]) | EC50 (Cannabinoid receptor 2 [3]) | EC50 (Cannabinoid receptor 1 [4])
1 | Clc1ccc(C(c2ccc3nccc(/C=C/c4ccccc4)c3c2)c2cccs2)cc1 (centres undefined) | 97.3 nM | – | – | –
2 | O=c1cc(/C=C/c2ccc(C(F)(F)F)cc2)c2cc(C(c3ccc(Cl)cc3)c3cccs3)ccc2[nH]1 (centres undefined) | 15.1 nM | > 5000 nM | – | –
3 | O=c1cc(Nc2ccc(F)c(Cl)c2)c2cc(C(c3ccc(Cl)cc3)c3ccc(Cl)cc3)ccc2[nH]1 | – | – | > 10000 nM | 10 nM
4 | COc1ccc(C(O)(c2ccc3nccc(/C=C/c4ccccc4)c3c2)c2nccs2)cc1 (centres undefined) | 1870 nM | – | – | –
5 | O=c1cc(/C=C/c2ccccc2)c2cc(C(c3ccc(Cl)cc3)c3nccs3)ccc2[nH]1 (centres undefined) | 34.6 nM | – | – | –
6 | Cn1c(=O)cc(CCc2cccc(Cl)c2)c2cc(C(c3ccc(Cl)cc3)c3nccs3)ccc21 (centres undefined) | > 2500 nM | – | – | –
7 | OC(c1ccc(Cl)cc1)(c1ccc(Cl)cc1)c1ccc2nccc(/C=C/c3ccccc3)c2c1 | 52.1 nM | – | – | –
8 | Clc1ccc(C(c2ccc3nccc(/C=C/c4ccccc4)c3c2)c2nccs2)cc1 (centres undefined) | 55.1 nM | > 5000 nM | – | –
9 | O=c1cc(NC2CCN(S(=O)(=O)C(F)(F)F)CC2)c2cc(C(c3ccc(Cl)cc3)c3ccc(Cl)cc3)ccc2[nH]1 | 1.2 nM | 53 nM | – | –
10 | O=c1cc(Nc2ccc(Cc3ccccc3)cc2)c2cc(C(c3ccc(Cl)cc3)c3ccc(Cl)cc3)ccc2[nH]1 | – | – | > 10000 nM | 15 nM
11 | OC(c1ccc(Cl)cc1)(c1ccsc1)c1ccc2nccc(/C=C/c3ccccc3)c2c1 (centres undefined) | 223 nM | – | – | –
12 | CCOC(=O)CCCOc1ccc(Nc2cc(=O)[nH]c3ccc(C(c4ccc(Cl)cc4)c4ccc(Cl)cc4)cc23)cc1 | – | – | > 10000 nM | 68 nM
13 | O=c1cc(CCc2cccc(Cl)c2)c2cc(C(c3ccc(Cl)cc3)c3nccs3)ccc2[nH]1 (centres undefined) | 332 nM | – | – | –
14 | N=C(N)N1CCC(Nc2cc(=O)[nH]c3ccc(C(c4ccc(Cl)cc4)c4ccc(Cl)cc4)cc23)CC1 | – | – | > 10000 nM | > 10000 nM
15 | O=c1cc(CCc2cccc(Cl)c2)c2cc(C(O)(c3ccc(Cl)cc3)c3nccs3)ccc2[nH]1 (centres undefined) | > 2500 nM | – | – | –
16 | O=c1cc(/C=C/c2cccc(F)c2)c2cc(C(c3ccc(Cl)cc3)c3ccsc3)ccc2[nH]1 (centres undefined) | 22 nM | > 5000 nM | – | –
17 | CC(C)(C)OC(=O)CN1CCC(Nc2cc(=O)[nH]c3ccc(C(c4ccc(Cl)cc4)c4ccc(Cl)cc4)cc23)CC1 | – | – | > 10000 nM | 5 nM
18 | O=c1cc(/C=C/c2ccc(C(F)(F)F)cc2)c2cc(C(c3ccc(Cl)cc3)c3nccs3)ccc2[nH]1 (centres undefined) | – | – | > 10000 nM | 397 nM
19 | O=c1cc(/C=C/c2ccccc2)c2cc(C(c3ccc(Cl)cc3)c3ccc(Cl)cc3)ccc2[nH]1 | 35.8 nM | – | – | –
20 | O=c1cc(NC2CCN(S(=O)(=O)C(F)(F)F)CC2)c2cc(C(c3ccc(Cl)cc3)c3nccs3)ccc2[nH]1 (centres undefined) | 4.4 nM | – | – | –
21 | O=S(=O)(N1CCC(Nc2ccnc3c(NC4CCN(S(=O)(=O)C(F)(F)F)CC4)cc(C(c4ccc(Cl)cc4)c4ccc(Cl)cc4)cc23)CC1)C(F)(F)F | – | – | > 14000 nM | > 14000 nM
22 | OC(c1ccc(Cl)cc1)(c1ccc2nccc(/C=C/c3ccccc3)c2c1)c1cccs1 (centres undefined) | 101 nM | – | – | –
23 | Clc1ccc(C(c2ccc(Cl)cc2)c2ccc3nccc(/C=C/c4ccccc4)c3c2)cc1 | 4.1 nM | – | – | –
